# Measurements: patent publication US20030212142A1, “Use of derivatives of valproic acid and 2-valproenic acid amides for the treatment of mania in bipolar disorder” (Yissum Research Development Company of the Hebrew …, priority 2000, published 2003)
# Entries after “also recorded” stand apart in the source; their conditions may differ.
# Tested on: amphetamine-induced hyperactivity
# Assay: amphetamine-induced hyperactivity model of mania in rats (activity meter, rearing)
# Assay type: in vivo, male Sprague Dawley rats
# Conditions: Compound 1 200 mg/kg by gavage; for Vertical Activity (Rearing), Mean Activity, Amphetamine challenge: amphetamine 0.5 mg/kg s.c. challenge; for Vertical Activity (Rearing), Mean Activity, Amphetamine challenge / Vertical Activity (Rearing), Mean activity, Saline challenge: movements per 30 min, Li+ 6 mg/kg by gavage; for Vertical Activity (Rearing), Mean activity, Saline challenge: saline s.c. challenge
# Procedure: Evaluation of possible anti-bipolar effects of Compound 1 was followed in the amphetamine-induced hyperactivity model of mania in rats. Activities of rats were followed in an activity meter (Elvicom, Israel) based on 2 levels laser beams and equipped with a computerized system that can count the vertical movements of rats (rearing). Activities were recorded for -30 min for each session, and the resultant appropriate movement reported per 30 min. Rats were housed under a 12 hr light/dark cycle and the behavioral testing was conducted in the light phase.
# The activities of rats following treatment with Compound 1, Li^+ (the standard drug for mania), and a control group were followed before and after being challenged with amphetamine. The statistical analyses were conducted using a two way ANOVA for the effects of drugs, amphetamine (repeated measure) and the drug-amphetamine interaction.
# In these experiments 30 male Sprague Dawley (weighing 200-250 g) rats were equally divided into 3 treatment groups: control, Li^+ (6 mg/kg by gavage)), and Compound 1 (200 mg/kg by gavage) (Drugs were suspended in 5% methyl cellulose). Half of the rats in each group were challenged (administered) amphetamine (0.5 mg/kg subsutaneously (s.c.)) and the other half was given saline (s.c.). Ten minutes later all rats were placed in the activity meter. One week later the procedure was repeated, except that the order of treatment was reversed; those rats which received saline on the first day were given amphetamine and those given amphetamine the first day were administered saline.
SMILES,"Vertical Activity (Rearing), Mean Activity, Amphetamine challenge","effect on amphetamine-induced rearing compared to control animals challenged with amphetamine (amphetamine 0.5 mg/kg s.c., p=0.06)","Vertical Activity (Rearing), Mean activity, Saline challenge"
CCCC(CCC)C(=O)NCC(N)=O [Compound 1],71.3,decreases amphetamine-induced hyperactivity; also recorded: reduced the rearing; also recorded: decreased the induced rearing in a similar manner as Li^+,34.1
"[Li] [Li, lithium, reference compound]",126.7,,59.8
